From patent US10710951B2, “Pharmaceutical composition containing verbenone derivative for treating or preventing neurodegenerative disease” (KOREA UNIVERSITY RESEARCH AND BUSINESS FOUNDATION, priority 2012, dated 2020)

Experiments:
cortical neurons [1] = experiment: Intracellular levels (DCF fluorescence) of reactive oxygen species after OGD/reoxygenation; type: cell-based, SD rats; details: FIG. 3
Procedure: In order to examine the direct radical scavenging activities of the samples, at 1 hour after reoxygenation, the cells were stained with the fluorescent probe H2DCF-DA (2,7-dihydroichlorofluorescein diacetate) that is widely used to measure intracellular oxidative stress. After 2 hours, the cells were washed in EBSS buffer (containing 25 mM glucose, 1.8 mM CaCal2, 1.2 mM MgSO4 and 2.5 mM probenecid (pH7.4)), and the fluorescence of DCF was measured with a fluorescence microplate reader (SpectraMax GeminiEM; Ex=485 nm, Em=530 nm) or a fluorescence microscope (DM IL HC Fluo, Leica, Wetzlar, Germany) equipped with a digital camera (DFC420C, Leica, Wetzlar Germany). The fluorescence intensity was compensated with autofluorescence (i.e., the fluorescence of cells not loaded with H2DCF-DA).

cortical neurons [2] = experiment: Oxygen-glucose deprivation (OGD)/reoxygenation neuronal injury, LDH release; type: cell-based; details: rat cortical neurons, FIG. 1
Procedure: (§1) Cortical neurons (5×10^5 cells/ml) were isolated from fetal SD rats (16-17 days). Specifically, brain cortex was cut, and cells were isolated from the tissue by repeated trituration using a Pasteur pipette in buffer (Hanks' Balanced Salt Solution, HBSS). The cell suspension (1.8×10^3 cells/mm^2) was dispensed on a plate pretreated with poly-D-lysine ([…])/laminin ([…]). The cells were placed in 10% FBS-containing NBM medium, and incubated in a […]/5% CO2 atmosphere at 37° C. After 15-16 days of the incubation, the experiment was performed.
In order to induce hypoxic-ischemic symptoms in vitro, the incubated cells were placed in an anoxic chamber (partial oxygen pressure <2 mmHg). The cells were incubated glucose-free DMEM while being bubbled with an anaerobic gas mixture (95% N2 and 5% CO2) for 30 minutes to remove residual oxygen, and were incubated at 37° C. for 90 minutes for oxygen deprivation. After 90 minutes, the exposed solution was replaced with 25 mmol/L glucose-containing DMEM medium to stop the OGD reaction, and the cells were restored to normal oxygen conditions. Control cells not exposed to OGD were incubated in glucose (25 mmol/L)-containing DMEM medium provided with an aerobic gas mixture (95% air and 5% CO2). The cells were treated with each sample 30 minutes before, and during the entire period of OGD/re-oxygenation.
(§2) In order to measure cell injury or cell death, the amount of LDH released into the medium was measured using a cell viability measurement kit (Sigma-Aldrich, St. Louis, Mo.). Cell viability was expressed as the percentage of LDH relative to the total cellular LDH level measured in sister cultures lysed by freezing-thawing after the experiment.

[3] = DPPH assay (ability to scavenge nitrogen radicals); design: DPPH assay % inhibition: concentration or dose not given beside the values
Procedure: The samples were mixed with DPPH (23.6 μg/ml, in ethanol), and incubated in dark at 37° C. for 30 minutes. The DPPH absorbance reduced by each sample was measured at 517 nm. Vitamin C (Sigma-Aldrich, St. Louis, Mo.) was used as a control, and the DPPH inhibition value (%) was calculated using the following equation: Scavenging activity (%)=[Absmax(Vit.C)−Abssample]/[Absmax(Vit.C)−Absmin(Vit.C)]×100. Equation 1
(§3) The antioxidant activities of the verbenone derivatives of the present invention were measured by the following two different chemical reactions: (1) a single electron transfer-based assay that is a […] [DPPH] assay that measures a decrease in DPPH acting as a free radical generator and a termination probe; and (2) a hydrogen atom transfer assay that is an oxygen radical absorbance capacity [[…]] assay that measures the competitive reaction kinetics of a peroxyl radical generator (AAPH; 2,2′-azobis-(2-methylpropionamide)-dihydrochloride) and each sample acting as an antioxidant for oxidizable fluorescent probe (fluorescein).

[4] = Oxygen radical absorbance capacity (ORAC) assay; design: ORAC assay TE25 (trolox equivalents): dose or concentration left out as unconfirmed; details: for ORAC assay TE25 (trolox equivalents): net AUC sample / net AUC trolox
Procedure: An ORAC assay was performed as disclosed in the literature (Huang, D. et al., J. Agric. Food Chem., 53, 1841-56, 2005).
AAPH (60 mM) and fluorescein (50 nM) were prepared in buffer (75 mM phosphate buffer, pH7.4) without a sample or a sample or a standard (Trolox). Each of the samples and the standard was suspended in a solution of 7% RMCD (randomly methylated beta-cyclodextrin) in 50% acetone. RMCD was used to increase the solubility of oil-soluble samples. Each sample was sufficiently mixed with fluorescein solution (66 nM, 190 μl) by shaking for 5 seconds. After incubation at 37° C. for 10 minutes, AAPH (500 mM, 30 μl) was quickly added to each sample, and a decrease in the fluorescence was measured using a fluorescence microplate reader (Ex=485 nm, Em=530 nm; SpectraMax GeminiEM, Molecular Devices, Sunnyvale, Calif.) at 37° C. at 5-min intervals for 9 hours. To quantify the activity of scavenging peroxyl radicals, AUC (area-under-the-curve) was calculated according to the following equation 2, and net AUC was calculated according to the following equation 3, and the TE (trolox equivalents) of each sample was calculated according to the following equation 4 based on a standard curve of net AUC plotted according to an increase in trolox concentration. AUC=(0.5+f1/f0+f2/f0+f3/f0+ . . . +fn−2/f0+fn−1/f0+fn/f0)×5, Equation 2
wherein f0 is the first fluorescence at 0 min and time I. Net AUC=AUCsample−AUCblank. Equation 3 TE(trolox equivalents) of each sample=[netAUCsample […]]/[net AUCtrolox […]]. Equation 4
as §3

cortical neurons [5] = experiment: NMDA-induced excitotoxicity, LDH release; type: cell-based, SD rats; design: dose or concentration left out as unconfirmed; details: cultured cortical neuronal cells; sample 30 min before NMDA; lower than MK-801; FIG. 2
Procedure: as §1
After incubation on the plate for 15-18 days, the cortical neurons were exposed to NMDA ([…]) in a solution (Mg^2+-free Earle's balanced salt solution (EBSS); containing 1.8 mM CaCl2 and 10 mM glycine) for 10 minutes. After exposure, the cells were washed with MgSO4-containing EBSS solution, and incubated in 25 mmol/L glucose-containing DMEM medium in a 5% CO2 incubator at 37° C. 30 Minutes before treatment with NMDA, the cells were treated with each sample […].
as §2

focal ischemia = details: rats and gerbils; literature; cited from earlier work

| SMILES | OGD-induced intracellular oxidative stress (DCF fluorescence) (cortical neurons [1]) | neuronal injury induced by OGD (LDH release) (cortical neurons [2]; OGD/reoxygenation, comparable to MK801) | cytotoxicity (cortical neurons [2]) | DPPH scavenging activity (in words) ([3]; compared to vitamin C at the same concentration) | DPPH assay % inhibition ([3]; relative to vitamin C (Equation 1)) [%] | ORAC assay Net AUC [4] | ORAC assay TE25 (trolox equivalents) [4] | NMDA-induced neuronal injury (cortical neurons [5]) | time of administration after onset of focal ischemia giving a neuron protection effect (focal ischemia) [h] | melting point [°C] | peroxyl radical scavenging activity in ORAC assay (in words) ([4]; compared to trolox) |
| --- | --- | --- | --- | --- | --- | --- | --- | --- | --- | --- | --- |
| CC1(C)[C@@H]2C[C@H]1C(C=Cc1ccc(O)c(O)c1)=CC2=O [Compound 3c, (1S,5R)-4-(3,4-dihydroxystyryl)-6,6-dimethylbicyclo[3.1.1]hept-3-en-2-one] | reduced OGD-induced intracellular oxidative stress | significantly reduced neuronal injury | showed no cytotoxicity | stronger scavenging activity compared to vitamin C | 91.62 ± 3.27 | 131.29 ± 11.97 | 3.11 ± 0.11 | significantly reduced NMDA-induced neuronal injury | – | – | – |
| C[C@]12N[C@H](Cc3ccccc31)c1ccccc12 [MK-801] | – | – | – | – | – | – | – | – | ≤ 1 | – | – |
| CC1(C)[C@@H]2C[C@H]1C(C=Cc1ccc(-n3cccc3)cc1)=CC2=O [Compound 4e, (1S,5R)-4-(4-(1H-pyrrol-1-yl)styryl)-6,6-dimethylbicyclo[3.1.1]hept-3-en-2-one] | – | – | – | – | – | 98.31 ± 0.48 | 2.19 ± 0.01 | – | – | 146 to 148 | strong peroxyl radical scavenging activities compared to trolox |
